The EC50 is the midpoint of the concentration-response curve. In general, solubility (kinetic) refers to the concentration staying in solution when a stock, usually in DMSO, is diluted into the medium. As usually defined, the half-life is the time in which the quantity being followed falls by half. Broadly, the Papp is the rate of passage across a membrane or cell layer, normalised by area and donor concentration. The efflux ratio is the permeability from basolateral to apical divided by that in the opposite direction, in the common usage. By microsomal CLint is commonly meant the rate of metabolic loss divided by the concentration. Read a low microsomal CLint as slow turnover.

Values after ≈ are worked out from the molar mass of the structure shown.

For series [1], the target named is Glutamate receptor ionotropic, NMDA 2B (Rattus norvegicus, UniProt P35439+Q00960).
Description: (§1) Positive allosteric modulation of recombinant rat GluN2B receptor expressed in Xenopus oocytes assessed as glutamate/glycine-induced potentiation of current by 2EVC method
The target in series [2] is Glutamate receptor ionotropic, NMDA 2C (Rattus norvegicus, UniProt P35439+Q00961).
Chain of Glutamate receptor ionotropic, NMDA 2C (Rattus norvegicus, UniProt P35439+Q00961) (Q00961 whole entry, one chain of several): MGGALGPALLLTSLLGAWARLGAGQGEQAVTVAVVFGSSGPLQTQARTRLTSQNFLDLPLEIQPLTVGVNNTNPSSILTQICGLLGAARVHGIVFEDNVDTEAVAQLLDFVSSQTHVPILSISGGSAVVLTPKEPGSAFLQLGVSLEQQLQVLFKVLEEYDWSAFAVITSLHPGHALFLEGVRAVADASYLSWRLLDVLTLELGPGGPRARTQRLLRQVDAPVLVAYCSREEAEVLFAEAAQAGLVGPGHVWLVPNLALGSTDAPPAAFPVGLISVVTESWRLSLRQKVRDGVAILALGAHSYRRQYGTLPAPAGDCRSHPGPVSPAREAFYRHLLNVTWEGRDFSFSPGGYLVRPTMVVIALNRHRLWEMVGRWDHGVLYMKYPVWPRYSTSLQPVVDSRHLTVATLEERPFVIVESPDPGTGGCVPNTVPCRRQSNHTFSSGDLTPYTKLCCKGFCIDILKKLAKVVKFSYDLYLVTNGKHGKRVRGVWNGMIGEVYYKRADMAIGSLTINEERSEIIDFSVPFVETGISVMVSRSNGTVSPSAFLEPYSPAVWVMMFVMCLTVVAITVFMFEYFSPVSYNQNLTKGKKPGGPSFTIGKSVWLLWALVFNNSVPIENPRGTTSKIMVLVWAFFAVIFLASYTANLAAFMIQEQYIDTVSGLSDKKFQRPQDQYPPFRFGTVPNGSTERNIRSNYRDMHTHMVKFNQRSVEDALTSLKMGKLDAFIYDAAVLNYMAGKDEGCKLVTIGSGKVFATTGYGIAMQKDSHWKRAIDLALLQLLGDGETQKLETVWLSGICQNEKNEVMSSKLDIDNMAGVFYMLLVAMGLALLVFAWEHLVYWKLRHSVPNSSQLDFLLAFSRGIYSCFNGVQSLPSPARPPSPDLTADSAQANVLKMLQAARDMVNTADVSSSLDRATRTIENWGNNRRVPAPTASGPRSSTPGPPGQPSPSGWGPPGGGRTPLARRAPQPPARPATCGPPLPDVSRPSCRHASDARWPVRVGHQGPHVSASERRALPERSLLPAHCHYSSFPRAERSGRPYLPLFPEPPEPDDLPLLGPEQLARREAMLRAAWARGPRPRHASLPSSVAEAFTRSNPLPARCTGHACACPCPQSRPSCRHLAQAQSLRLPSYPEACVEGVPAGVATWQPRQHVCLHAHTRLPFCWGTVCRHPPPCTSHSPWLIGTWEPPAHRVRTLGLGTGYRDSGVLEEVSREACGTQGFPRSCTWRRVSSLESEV
Description: (§2) Positive allosteric modulation of recombinant rat GluN2C receptor expressed in Xenopus oocytes assessed as glutamate/glycine-induced potentiation of current by 2EVC method
The target in series [3] is Glutamate receptor ionotropic, NMDA 2D (Rattus norvegicus, UniProt P35439+Q62645).
Chain of Glutamate receptor ionotropic, NMDA 2D (Rattus norvegicus, UniProt P35439+Q62645) (Q62645 whole entry, one chain of several): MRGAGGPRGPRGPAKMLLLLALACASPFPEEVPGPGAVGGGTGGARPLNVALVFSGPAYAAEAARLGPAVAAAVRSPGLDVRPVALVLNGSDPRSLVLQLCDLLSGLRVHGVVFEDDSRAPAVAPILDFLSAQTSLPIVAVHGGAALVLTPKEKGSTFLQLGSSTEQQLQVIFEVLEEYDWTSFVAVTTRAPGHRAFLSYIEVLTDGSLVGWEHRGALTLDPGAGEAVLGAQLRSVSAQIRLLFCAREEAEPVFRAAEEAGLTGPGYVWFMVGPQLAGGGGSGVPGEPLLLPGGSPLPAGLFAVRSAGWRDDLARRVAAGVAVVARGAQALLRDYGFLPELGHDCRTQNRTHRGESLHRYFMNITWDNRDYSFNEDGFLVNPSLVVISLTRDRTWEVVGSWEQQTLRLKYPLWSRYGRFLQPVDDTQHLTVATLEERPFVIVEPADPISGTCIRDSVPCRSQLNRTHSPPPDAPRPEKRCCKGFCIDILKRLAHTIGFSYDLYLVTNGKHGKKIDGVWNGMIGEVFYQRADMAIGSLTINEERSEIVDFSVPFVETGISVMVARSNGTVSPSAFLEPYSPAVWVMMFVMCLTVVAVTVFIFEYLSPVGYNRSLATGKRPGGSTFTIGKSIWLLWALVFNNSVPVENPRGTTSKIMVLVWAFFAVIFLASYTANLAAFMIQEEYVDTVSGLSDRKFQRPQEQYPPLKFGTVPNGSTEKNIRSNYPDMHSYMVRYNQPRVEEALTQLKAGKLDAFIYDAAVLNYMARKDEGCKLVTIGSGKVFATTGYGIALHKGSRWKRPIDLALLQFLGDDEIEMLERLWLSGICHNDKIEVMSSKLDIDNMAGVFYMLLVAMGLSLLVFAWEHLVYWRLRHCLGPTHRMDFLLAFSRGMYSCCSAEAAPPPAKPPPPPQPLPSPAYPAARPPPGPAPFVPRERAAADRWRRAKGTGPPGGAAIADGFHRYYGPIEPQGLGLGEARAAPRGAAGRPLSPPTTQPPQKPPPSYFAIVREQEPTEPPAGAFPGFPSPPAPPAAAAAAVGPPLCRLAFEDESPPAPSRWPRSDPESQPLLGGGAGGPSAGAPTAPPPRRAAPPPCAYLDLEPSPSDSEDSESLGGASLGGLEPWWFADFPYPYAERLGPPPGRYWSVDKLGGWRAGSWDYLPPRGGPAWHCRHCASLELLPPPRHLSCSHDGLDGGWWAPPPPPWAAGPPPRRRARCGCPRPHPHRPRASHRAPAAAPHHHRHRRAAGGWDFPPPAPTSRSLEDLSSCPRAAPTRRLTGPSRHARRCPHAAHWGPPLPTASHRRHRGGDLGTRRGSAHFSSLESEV
Description: (§3) Positive allosteric modulation of recombinant rat GluN2D receptor expressed in Xenopus oocytes assessed as glutamate/glycine-induced potentiation of current by 2EVC method
Series [4] deals with T1, Glutamate receptor ionotropic, NMDA 2A (Homo sapiens, UniProt Q05586+Q12879). Description: Positive allosteric modulation of GluN2A receptor (unknown origin) expressed in Doxycycline-inducible HEK293 cells by calcium influx assay.
The target of series [5] is T2, Glutamate receptor ionotropic, NMDA 2B (Homo sapiens, UniProt Q05586+Q13224). Description: Positive allosteric modulation of GluN2B receptor (unknown origin) expressed in Doxycycline-inducible HEK293 cells by calcium influx assay.
The target of series [6] is T3, Glutamate receptor ionotropic, NMDA 2C (Homo sapiens, UniProt Q05586+Q14957). Description: Positive allosteric modulation of GluN2C receptor (unknown origin) expressed in Doxycycline-inducible HEK293 cells by calcium influx assay.
T3 sequence (Q14957 whole entry, one chain of several): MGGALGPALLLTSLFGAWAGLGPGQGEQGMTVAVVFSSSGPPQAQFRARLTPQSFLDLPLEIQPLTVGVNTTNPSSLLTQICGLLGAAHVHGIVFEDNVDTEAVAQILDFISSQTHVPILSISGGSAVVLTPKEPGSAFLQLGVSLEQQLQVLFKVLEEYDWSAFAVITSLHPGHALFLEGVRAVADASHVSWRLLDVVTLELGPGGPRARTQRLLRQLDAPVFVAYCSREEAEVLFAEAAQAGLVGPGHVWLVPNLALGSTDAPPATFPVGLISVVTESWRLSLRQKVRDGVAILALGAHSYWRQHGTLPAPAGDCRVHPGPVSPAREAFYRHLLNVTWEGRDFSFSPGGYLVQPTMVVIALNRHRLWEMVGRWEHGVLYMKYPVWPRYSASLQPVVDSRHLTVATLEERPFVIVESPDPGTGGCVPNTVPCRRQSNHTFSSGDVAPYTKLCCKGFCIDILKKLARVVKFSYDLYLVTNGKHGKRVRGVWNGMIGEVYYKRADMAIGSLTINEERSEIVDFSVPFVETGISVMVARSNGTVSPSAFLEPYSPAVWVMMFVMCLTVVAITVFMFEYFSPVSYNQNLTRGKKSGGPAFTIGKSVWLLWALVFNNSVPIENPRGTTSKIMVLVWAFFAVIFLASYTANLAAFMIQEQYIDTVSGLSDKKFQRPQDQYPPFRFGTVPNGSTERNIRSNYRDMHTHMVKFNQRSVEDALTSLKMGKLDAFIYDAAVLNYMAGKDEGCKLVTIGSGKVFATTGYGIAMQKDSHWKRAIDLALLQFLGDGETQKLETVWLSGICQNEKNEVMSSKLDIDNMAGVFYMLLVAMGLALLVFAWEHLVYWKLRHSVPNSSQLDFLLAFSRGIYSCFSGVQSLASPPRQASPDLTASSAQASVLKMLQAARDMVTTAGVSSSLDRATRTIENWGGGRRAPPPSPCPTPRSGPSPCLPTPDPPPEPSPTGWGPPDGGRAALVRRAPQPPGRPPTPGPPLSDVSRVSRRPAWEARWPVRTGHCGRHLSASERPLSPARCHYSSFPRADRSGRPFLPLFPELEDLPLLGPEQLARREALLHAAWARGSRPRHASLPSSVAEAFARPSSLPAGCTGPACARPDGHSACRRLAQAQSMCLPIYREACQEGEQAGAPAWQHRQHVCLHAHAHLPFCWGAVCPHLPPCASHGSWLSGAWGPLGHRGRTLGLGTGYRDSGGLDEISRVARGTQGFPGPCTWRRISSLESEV
Series [7] addresses T4, Glutamate receptor ionotropic, NMDA 2D (Homo sapiens, UniProt O15399+Q05586). Description: Positive allosteric modulation of GluN2D receptor (unknown origin) expressed in Doxycycline-inducible HEK293 cells by calcium influx assay.
Series [8] concerns the target Glutamate receptor ionotropic, NMDA 2B (Rattus norvegicus, UniProt Q00960). As to conditions: oocyte.
Description: as §1
Series [9] in a line: Kinetic solubility of compound in PBS at pH 7.3 by nephelometry.
A short description of series [10]: Stability in human plasma assessed as half life.
Series [11] can be described thus: Stability in mouse plasma assessed as half life.
Series [12] is described as follows: Stability in rat plasma assessed as half life.
Series [13] is described as follows: Apparent permeability in MDCK-MDR1 cells. As to conditions: dog.
Series [14] in a line: Efflux ratio of apparent permeability in MDCK-MDR1 cells. Conditions: dog.
Another series is described as follows: in vitro. As to conditions: human, liver microsomes. (In general: Liver microsomes are a subcellular fraction often used to study metabolism.)
A further series has as its target Glutamate NMDA receptor. Description: Positive allosteric modulation of NMDAR in rat hippocampal neurons by Whole-cell and excised-patch recording method. Conditions: hippocampal neuron.
For series [15], the target named is T1, Glutamate receptor ionotropic, NMDA 2A. Put plainly: Positive allosteric modulation of GluN2A receptor (unknown origin).
For series [16], the target named is T3, Glutamate receptor ionotropic, NMDA 2C. Description: Positive allosteric modulation of GluN2C receptor (unknown origin).
Series [17] addresses T4, Glutamate receptor ionotropic, NMDA 2D. Put plainly: Positive allosteric modulation of GluN2D receptor (unknown origin).
In series [18] the target is Glutamate receptor ionotropic, NMDA 2C (Rattus norvegicus, UniProt Q00961). Conditions: oocyte.
Description: as §2
In series [19] the target is Glutamate receptor ionotropic, NMDA 2D (Rattus norvegicus, UniProt Q62645). As to conditions: oocyte.
Description: as §3
Series [20] concerns the target T2, Glutamate receptor ionotropic, NMDA 2B. Put plainly: Positive allosteric modulation of human GluN2B receptor expressed in HEK293 cells by Whole-cell patch-clamp method. For orientation: Patch clamp records ionic current or voltage across a cell membrane.
The target of series [21] is T3, Glutamate receptor ionotropic, NMDA 2C. Description: Positive allosteric modulation of human GluN2C receptor expressed in HEK293 cells by Whole-cell patch-clamp method.

T4 sequence (O15399 whole entry, one chain of several): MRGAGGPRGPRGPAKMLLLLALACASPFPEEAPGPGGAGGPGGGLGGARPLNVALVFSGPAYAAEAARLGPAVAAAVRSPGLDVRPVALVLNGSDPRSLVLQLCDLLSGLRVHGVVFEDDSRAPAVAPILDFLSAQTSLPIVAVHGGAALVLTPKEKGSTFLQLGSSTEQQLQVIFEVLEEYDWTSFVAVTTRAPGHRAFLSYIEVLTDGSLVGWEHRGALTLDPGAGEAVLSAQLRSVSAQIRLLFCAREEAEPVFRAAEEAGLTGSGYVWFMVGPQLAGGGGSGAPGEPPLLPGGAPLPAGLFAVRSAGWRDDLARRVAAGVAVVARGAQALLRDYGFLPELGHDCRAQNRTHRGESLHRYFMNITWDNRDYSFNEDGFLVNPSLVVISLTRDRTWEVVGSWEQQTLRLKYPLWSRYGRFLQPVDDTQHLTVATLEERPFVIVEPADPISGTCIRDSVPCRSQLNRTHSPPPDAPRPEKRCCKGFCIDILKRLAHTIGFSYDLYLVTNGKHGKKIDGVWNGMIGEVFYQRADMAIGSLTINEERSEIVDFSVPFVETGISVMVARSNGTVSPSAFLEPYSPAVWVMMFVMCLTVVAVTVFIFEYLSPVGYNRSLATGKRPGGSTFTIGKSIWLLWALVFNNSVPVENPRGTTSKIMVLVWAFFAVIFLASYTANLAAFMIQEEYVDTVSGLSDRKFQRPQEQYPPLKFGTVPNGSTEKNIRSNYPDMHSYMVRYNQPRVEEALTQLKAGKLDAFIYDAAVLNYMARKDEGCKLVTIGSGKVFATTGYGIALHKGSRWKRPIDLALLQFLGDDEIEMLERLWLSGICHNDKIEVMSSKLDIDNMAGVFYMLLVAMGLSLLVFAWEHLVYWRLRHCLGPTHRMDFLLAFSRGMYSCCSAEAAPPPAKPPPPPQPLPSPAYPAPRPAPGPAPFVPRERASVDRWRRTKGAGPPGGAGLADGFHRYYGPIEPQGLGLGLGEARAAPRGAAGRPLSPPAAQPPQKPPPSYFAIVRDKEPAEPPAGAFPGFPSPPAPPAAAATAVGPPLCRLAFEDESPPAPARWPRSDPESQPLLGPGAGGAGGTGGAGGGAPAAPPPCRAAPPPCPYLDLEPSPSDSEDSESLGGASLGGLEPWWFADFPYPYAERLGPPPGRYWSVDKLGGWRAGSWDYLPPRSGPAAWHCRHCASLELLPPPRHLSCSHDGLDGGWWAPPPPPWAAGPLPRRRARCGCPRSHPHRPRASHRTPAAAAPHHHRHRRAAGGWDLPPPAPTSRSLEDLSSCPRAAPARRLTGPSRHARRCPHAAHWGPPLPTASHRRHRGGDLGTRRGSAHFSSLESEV
Description for in vitro: Intrinsic clearance in human liver microsomes at 3 uM preincubated for 5 mins followed by NADPH addition measured up to 30 mins by LC-MS/MS analysis

Turning to `Cc1sc2ncn(CC(=O)N3CC(C)C3)c(=O)c2c1-c1cccc(Br)c1`, the values for the EC50 in series [1] and in series [2] were 7.6 µM and 12 µM, respectively.
Turning to `CCc1sc2ncn(CC(=O)N3CC(C)(F)C3)c(=O)c2c1-c1ccc(F)c(Br)c1`, the half-maximal effective concentration (EC50) is 1.8 µM in series [1], 3.14 µM in [2] and 4.7 µM in series [3].
With `CCCc1nc2[nH]c(C)c(NS(=O)(=O)c3ccc(C4CCCCC4)cc3)c(=O)n2n1`, the EC50 in series [4], in series [5], in series [6] and in [7] was 3 µM throughout.
With `Cc1sc2ncn(CC(=O)N3CC(C)(F)C3)c(=O)c2c1-c1cc(F)cc(Cl)c1`, the EC50 in series [1] was 1.6 µM; in series [2], 9.4 µM; in [3] it was 7.4 µM.
Turning to `CCCC1(F)CN(C(=O)Cn2cnc3sc(C)c(-c4cccc(Br)c4)c3c2=O)C1`, the figures for the EC50 in series [2], in series [3] and in series [8] were 13 µM, 11 µM and “Not_active”, respectively.
As for `Cc1sc2ncn(CC(=O)N3CC(C)(F)C3)c(=O)c2c1-c1cccc(Br)c1`, the EC50 amounted to 0.78 µM in series [1], 2 µM in series [2] and 2.8 µM in series [3].
In series [9], `CC1(F)CN(C(=O)Cn2cnc3scc(-c4ccc(F)c(Br)c4)c3c2=O)C1` showed a kinetic solubility of 33 µM (≈ 15 µg/mL). For the same compound, the half-life in [10], in series [11] and in series [12] was greater than 4 h in each case. Besides, the Papp in [13] came to 16.6 ×10⁻⁶ cm/s. For the same compound, the efflux ratio in series [14] worked out at 2.04. Moreover, the results for the EC50 in series [1], in [2] and in [3] were 0.74 µM, 0.87 µM and 2.1 µM, respectively. In “in vitro”, the microsomal CLint at 0.5 h, 3 µM is 14 µL/min/mg.
Take `Cc1sc2ncn(CC(=O)N3CC(F)(C4CC4)C3)c(=O)c2c1-c1cccc(Br)c1`: the EC50 turned out to be 2 µM in series [1], 3.7 µM in series [2] and 5.4 µM in [3].
In the same order, the values of `Cc1sc2ncn(CC(=O)N3CC(C)(F)C3)c(=O)c2c1-c1cccc(Cl)c1F` are 2 µM, 5.3 µM and 6.9 µM.
Turning to `CC1(F)CN(C(=O)Cn2cnc3sc(C(F)(F)F)c(-c4ccc(F)c(Br)c4)c3c2=O)C1`, the EC50 was found to be 2.3 µM in [1], 3.2 µM in series [2] and 6.1 µM in series [3].
For `Cc1sc2ncn(CC(=O)N3CC(C)(F)C3)c(=O)c2c1-c1cccc(OC(F)(F)F)c1`, the EC50 in series [1] was 1.1 µM; in series [2], 2.6 µM; in series [3] it was 4.2 µM.
`Cc1sc2ncn(CC(=O)N3CC(C)(F)C3)c(=O)c2c1-c1ccc(Cl)c(Cl)c1`: the EC50 in series [1] was found to be 0.41 µM; in [2], 0.86 µM; in series [3], 1 µM.
As for `Cc1sc2ncn(CC(=O)N3CC(C)(F)C3)c(=O)c2c1-c1ccc(F)c(Cl)c1`, the EC50 in [1] came to 0.7 µM; in series [2], 1.2 µM; in series [3], 2.1 µM.
On to `Cc1sc2ncn(CC(=O)N3CC(C)(F)C3)c(=O)c2c1-c1ccc2ccccc2c1`, for which the EC50 in [1] is 2 µM; in series [2], 3 µM; in series [3], 6.3 µM.
With `Cc1sc2ncn(CC(=O)N3CCC3)c(=O)c2c1-c1cccc(Br)c1`, the EC50 in [1] was determined as 23 µM; in series [2], 20 µM.
Take `Cc1sc2ncn(CC(=O)N3CC(C)(C)C3)c(=O)c2c1-c1cccc(Br)c1`: the EC50 in [1] was found to be 2.8 µM; in [2], 5.3 µM; in series [3] it was 11 µM.
In the same order, the values of `Cc1sc2ncn(CC(=O)N3CCC(F)(F)C3)c(=O)c2c1-c1cccc(Br)c1` are 2.6 µM, 6.7 µM and 11.7 µM.
In turn, `Cc1sc2ncn(CC(=O)N3CC[C@@H](F)C3)c(=O)c2c1-c1cccc(Br)c1` returned an EC50 in series [1] of 14 µM.
For `Cc1sc2ncn(CC(=O)N3CC(C)(F)C3)c(=O)c2c1-c1ccc(F)c(Br)c1`, the solubility (kinetic) in series [9] turned out to be 34 µM (≈ 15.9 µg/mL). The half-life in [10], in series [11] and in series [12] was greater than 4 h each time. Besides, the Papp in series [13] stood at 19.6 ×10⁻⁶ cm/s. For the same compound, in series [14], the efflux ratio is 1.98. Further, the EC50 in series [1] amounted to 0.33 µM; in [2] it was 0.63 µM; in series [3], 1.1 µM. In addition, the microsomal CLint at 0.5 h, 3 µM in the series “in vitro” came to 29 µL/min/mg.
At Glutamate NMDA receptor, `CC(C)[C@@H](O)CC[C@@H](C)[C@H]1CC[C@H]2[C@@H]3CC=C4C[C@@H](O)CC[C@]4(C)[C@H]3CC[C@]12C` yielded an EC50 of 1.2 µM.
As to `C[C@H](CC[C@](C)(O)C(F)(F)F)[C@H]1CC[C@H]2[C@@H]3CC=C4C[C@@](C)(O)CC[C@]4(C)[C@H]3CC[C@]12C` [DALZANEMDOR], the EC50 in series [15], in series [16] and in series [17] was 0.079 µM throughout.
`C#CC1(F)CN(C(=O)Cn2cnc3sc(C)c(-c4cccc(Br)c4)c3c2=O)C1`: the EC50 entry in series [8], in series [18] and in series [19] was “Not_active” each time.
On to `Cc1sc2ncn(CC(=O)N3CC(C)(F)C3)c(=O)c2c1-c1ccc(F)c(OC(C)C)c1`, for which the EC50 turned out to be 2 µM in series [1], 5.2 µM in [2] and 5.8 µM in series [3].
Take `Cc1sc2ncn(CC(=O)N3CCC(C)C3)c(=O)c2c1-c1cccc(Br)c1` (stereo not drawn): the EC50 was determined as 2.5 µM in series [1], 6.6 µM in [2] and 13 µM in series [3].
Taken in the same sequence, the figures for `Cc1sc2ncn(CC(=O)N3CC(C)(F)C3)c(=O)c2c1-c1ccc(F)c(C(F)(F)F)c1` were 0.6 µM, 1.6 µM and 2.4 µM.
`CC1(F)CN(C(=O)Cn2cnc3sc(C#N)c(-c4ccc(F)c(Br)c4)c3c2=O)C1` came in with a solubility (kinetic) in series [9] of 45 µM (≈ 21.6 µg/mL). Besides, the half-life in series [10], in series [11] and in series [12] was greater than 4 h in each case. Moreover, the Papp in [13] was found to be 9.36 ×10⁻⁶ cm/s. Also, in [14], the efflux ratio was 4.66. Also, the EC50 in series [1] amounted to 0.36 µM; in [2], 0.94 µM; in series [3] it was 0.89 µM. This compound had a microsomal CLint at 0.5 h, 3 µM in the series “in vitro” of 16 µL/min/mg.
As for `Cc1sc2ncn(CC(=O)N3CC[C@@H](O)C3)c(=O)c2c1-c1cccc(Br)c1`, the EC50 result in series [8], in series [18] and in [19] was “Not_active” throughout.
Turning to `Cc1sc2ncn(CC(=O)N3CC(C)(F)C3)c(=O)c2c1-c1ccc(Cl)c(F)c1`, the figures for the EC50 in series [1], in series [2] and in [3] were 1.7 µM, 4.5 µM and 5.6 µM, respectively.
Consider `Cc1sc2ncn(CC(=O)N3CC(C)(F)C3)c(=O)c2c1-c1ccc(F)c(C#N)c1`, for which the EC50 in series [1] is 1.3 µM; in [2], 4.2 µM; in series [3], 4.8 µM.
As for `Cc1sc2ncn(CC(=O)N3CC(C)(F)C3)c(=O)c2c1-c1cccc(Cl)c1`, the results for the EC50 in series [1], in [2] and in series [3] were 1.2 µM, 2.2 µM and 4.9 µM, respectively.
Consider `CCC1(F)CN(C(=O)Cn2cnc3sc(C)c(-c4cccc(Br)c4)c3c2=O)C1`, for which the figures for the EC50 in [1], in series [2] and in series [3] were 0.97 µM, 2.4 µM and 3.6 µM, respectively.
As to `Cc1sc2ncn(CC(=O)N3CC(C)(F)C3)c(=O)c2c1-c1cc(Cl)ccc1F`, the EC50 is 1.5 µM in [1], 3.9 µM in series [2] and 4.5 µM in series [3].
As to `Cc1sc2ncn(CC(=O)N3CCC(C)(F)C3)c(=O)c2c1-c1cccc(Br)c1` (stereo not drawn), the EC50 turned out to be 2.9 µM in [1], 9.1 µM in series [2] and 13 µM in series [3].
As for `Cc1sc2ncn(CC(=O)N3CC(C)(F)C3)c(=O)c2c1-c1cccc(C(F)(F)F)c1`, the results for the EC50 in series [1], in [2] and in series [3] were 1.1 µM, 2.2 µM and 3.8 µM, respectively.
As for `Cc1sc2ncn(CC(=O)N3CC[C@H](F)C3)c(=O)c2c1-c1cccc(Br)c1`, the EC50 in [1] was 15 µM; in series [2] it was 12 µM; in series [3] it was 25 µM.
Regarding `Cc1sc2ncn(CC(=O)N3CC(C)(F)C3)c(=O)c2c1-c1ccc2ccn(C)c2c1`, the EC50 in [1] is 10 µM.
On the same count and under the same terms, the value for `Cc1sc2ncn(CC(=O)N3CCC[C@@H]3C)c(=O)c2c1-c1cccc(Br)c1` was 21 µM.
On to `Cc1sc2ncn(CC(=O)N3CC(C)(F)C3)c(=O)c2c1-c1ccc2c(c1)OC(F)(F)O2`, for which the EC50 was found to be 2.8 µM in series [1], 13 µM in series [2] and 13 µM in series [3].
`C[C@@H](O)[C@@H](C(N)=O)N1C[C@@]2(CCCN2C(=O)OC(C)(C)C)C1=O` [ZELQUISTINEL]: the EC50 in [20] and in series [21] was 9.7 µM in each case.

The values above are taken from ChEMBL document CHEMBL6134891, “Thienopyrimidinone Derivatives as a GluN2B/C/D Biased, Positive Allosteric Modulator of the N-Methyl-d-Aspartate Receptor” (J Med Chem, 2025).
